Biological target: α7 subunit of the nicotinic Acetylcholine Receptor (nAchR) (Homo sapiens, UniProt P36544)
Format: biochemical

Chain of α7 subunit of the nicotinic Acetylcholine Receptor (nAchR) (P36544 23-502 limits assumed): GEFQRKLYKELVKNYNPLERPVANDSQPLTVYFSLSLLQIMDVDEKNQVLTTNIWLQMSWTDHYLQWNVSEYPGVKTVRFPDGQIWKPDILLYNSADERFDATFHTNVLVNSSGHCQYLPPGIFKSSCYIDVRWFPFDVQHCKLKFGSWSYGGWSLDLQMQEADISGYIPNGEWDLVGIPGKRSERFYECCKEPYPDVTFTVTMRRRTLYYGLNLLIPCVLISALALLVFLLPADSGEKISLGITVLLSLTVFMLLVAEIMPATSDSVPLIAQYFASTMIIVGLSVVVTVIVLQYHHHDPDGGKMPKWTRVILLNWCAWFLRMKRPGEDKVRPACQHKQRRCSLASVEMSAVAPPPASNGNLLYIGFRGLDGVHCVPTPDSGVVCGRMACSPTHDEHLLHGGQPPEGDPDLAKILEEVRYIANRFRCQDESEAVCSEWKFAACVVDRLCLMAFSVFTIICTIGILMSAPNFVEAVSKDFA

Compound | carbamoylcholine-induced signal after incubation with inhibitor | signal on activation of the nAchR sensor
α-Bungarotoxin [α-BTX] | could not be generated the same way | –
C[N+](C)(C)CCOC(N)=O.[Cl-] [carbamoylcholinechloride, Carbamoylcholine chloride] | – | results in a signal
